One compound from US20140010939A1, “Sweetness Enhancers, Sweetener Compositions, Methods of Making the Same and Consumables Containing the Same” (Nutrinova Nutrition Specialties & Food Ingredients GmbH, priority 2011, published 2014) can be followed below.

Each structure is given as a SMILES string.

A short description of data set [1]: Stability test at 30° C. at three pH-values (HPLC). It is filed as physicochemical. The conditions noted are these: for Stability: 30° C., 8 weeks, 0.2 mM, HPLC. Here is the method: The stability of the compound of formula (Ia) was tested at 30° C. at three different pH-values.
The test ran over 8 weeks with the compound of formula (Ia) placed in temperature controlled ovens. Samples were taken according to the following scheme: Days 0, 3, 6, 10, 14, 21, and 28 followed by weeks 6 and 8. All samples were analyzed by HPLC. Reference samples for days 3, 6, 10, 14, 21, and 28 plus weeks 6 and 8 were kept at −20° C. and analyzed together with the samples at 30° C.
Each individual sample of the compound of formula (Ia) contained 18 μg in 200 μl buffer (0.2 mM). All samples were prepared in 1.5 ml HPLC vials at the same day. Samples for day 0 were immediately analyzed and all other samples placed in ovens. Reference samples were immediately frozen at −20° C.
One reference sample per pH-value was used. Samples from the oven were taken and reference samples were added after thawing. The set of samples at 30° with reference sample was grouped into the HPLC autosampler to minimize the time gap between HPLC-analysis within each set of samples. All samples were analyzed by double injections.
Samples were analyzed by the method shown below. The target peak was manually integrated and mean values of double injections were used to prepare graphs for assessment of the stability (see FIGS. 4 to 6).

A short description of data set [2]: Taste and spit assay phase I - qualitative assessment. It is filed as in vivo. To be noted: 20 μM in 0.5% ethanol, 10 ml samples, 5 individuals, ambient temperature. Here is the method:
The taste of a sample of compound of formula (Ia) with regard to sweetness and fructose enhancing features was assessed by using a panel of trained sensory evaluators experienced in the sweet taste estimation procedure. 5 individuals were asked to taste the quality of single samples of 10 ml volume. Panelists were asked to take a sample of the liquid to be assessed (20 μM test substance compound of formula (Ia) in 0.5% ethanol) into the mouth and after some time allowed for taste perception to spit the sample out completely. Subsequently, the panelists were asked to rinse their mouth well with water or black tea to reduce any potential carry over effects. The tasting of a sample could be repeated if required. In a first descriptive test 5 individuals were asked to taste the quality of single samples of 10 ml volume (maximum 3 subsequent samples). The samples were served at ambient temperature. The individuals of the taste panel were asked to answer the following questions with regard to the quality of taste: 1) does the sample taste sweet?, 2) is there another taste detectable (bitter, sour, salty, umami)?, 3) is there an off- or aftertaste?, 4) is there anything else remarkable about the perception of the sample?

The test system of data set [3] is control cell line without sweet receptor (HEKα15#17). As to the kind of experiment: Control cell line without sweet receptor in the same calcium cell based assay. Here is the method: For measurement of human T1R2/T1R3 taste receptor dependent activity a control cell line without sweet receptor based on HEK 293 and a cell line expressing the sweet receptor hT1R2/hT1R3 based on HEK 293, respectively, are seeded into assay plates and labelled with the calcium sensitive fluorescence dye Fluo4-AM in a culture medium. The potential modulators, e.g. the test compound, are added to the control cell line and to the cell line expressing the sweet receptor hT1R2/hT1R3, respectively.
A stable cell line based on HEK293 was termed HEKα15#17 served as control for functional Ga-protein and a stable cell line HEKGα15#17R2R3b#8 C6 served as cell line expressing the sweet receptor hT1R2/hT1R3 based on HEKGα15#17.
The cells were cultured in DMEM/HG and 10% FCS Gold, 4 mM L-Glutamin, 1,3 mg/ml Geneticin (HEKGα15#17) or the same medium additionally containing 6 μg/ml Blasticidin (HEKGα15#17R2R3b#8 C6). The medium for the assay was DMEM/HG (high glucose, 4.5 g/l glucose, Life Technologies) and 10% FCS Gold, 4 mM L-Glutamin (HEKGα15#17) or DMEM/LG (low glucose, 1 g/l glucose; Life Technologies) and 10% FCS Gold (HEKGα15#17R2R3b#8C6), respectively.
In order to evaluate the sweet receptor modulating activity of the compound of formula (Ia), compound of formula (Ia) was added to the cultures in a concentration of 25 μM in a volume of 50 μl. Controls were KH-buffer (Krebs HEPES-buffer: 118 mM NaCl, 4.7 mM KCl, 1.2 mM MgSO4, 1.2 mM KH2PO4, 4.2 mM NaHCO3, 1.3 mM CaCl2, 10 mM Hepes, pH 7.4) either without or with sweetness enhancer.
Further controls for function of G-protein and receptor were isoproterenol (1 μM, Sigma Aldrich), ionomycin (1 μM, Calbiochem) and ATP (1 μM, Applichem).
For measurement of human T1R2/T1R3 taste receptor dependent activity, on day 1 of the test procedure the HEKα15#17 cells (control cell line without sweet receptor) and the HEKGα15#17R2R3b#8 C6 cells (cell line expressing the sweet receptor hT1R2/hT1R3), respectively, were transferred to low-glucose medium.
On day 2 the cells were seeded into assay plates at a density of 25,000 cells/well. Assay plates for fluorescence measurement (black clear bottom 96-cavity plates, Greiner Bio-One) were coated with poly-D-lysine. For direct comparison both cell lines (control cell line without sweet receptor and cell line expressing the sweet receptor hT1R2/hT1R3) were seeded into different cavities of the same assay plate. The plate was placed into the incubator for 48 hours at 37° C., 5% CO2, 100% relative humidity.
On day 4 the calcium assay was performed. For this assay, the cells were marked with Fluo4-AM in medium and KH-buffer. To each cavity 100 μl KH-buffer/250 μM sulfinpyrazone/4 μM Fluo4-AM were added gently to 100 μl medium (final concentration of Fluo4-AM=2 μM, stock solution of Fluo4-AM 1 mM in DMSO, excitation at 485 nm, emission at 520 nm, Fisher Scientific, 58239 Schwerte, Germany).
The plate was placed into the incubator for 1 hour. In the mean time the test substances (“ligands”) were prepared in a separate plate (5 times concentrated, 150 μl/cavity, and then automatically 50 μl/cavity were transferred into the screening cell plate by pipetting robot (FLEX-station, Molecular Devices, Sunnyvale, Calif.).
The culture medium was carefully removed and 200 μl KH-buffer/250 μM sulfinpyrazone per cavity was added slowly. Cells were left in the FLEX-station for 20 minutes for adaptation, followed by measurement at 37° C.

On to `CC(=O)N(O)CCCCCNC(=O)C(O)(CC(=O)O)CC(=O)NCCCN(O)C(C)=O` (stereo not drawn) [compound of formula (Ia)], for which the Stability entry is “stable during 8 weeks at 30 °C at pH=3.0” in data set [1] (pH=3.0 Na-Citrate buffer, FIG. 4); “stable during 8 weeks at 30 °C at pH=4.5” in data set [1] (pH=4.5 Na-Citrate buffer, FIG. 5); “stable during 8 weeks at 30 °C at pH=6.5” in data set [1] (pH=6.5 phosphate buffer, FIG. 6). The “Temperature and pH stability (overall)” value in data set [1] (summary of the test at 30° C., pH 3.0, 4.5, 6.5) was “excellent temperature and pH stability”. Besides, in data set [2], the “Characteristic taste of the sample (sweet, bitter, sour, salty, umami)” value is “No characteristic taste was identified”. Also, the Off- or aftertaste entry in data set [2] is listed as “no off-taste was detected”. The “Fluo4-AM fluorescence increase (activation of control cell line)” value was “does not activate the control cell line” in data set [3] (25 μM, in the presence of fructose (20 mM), FIG. 1 ninth bar); “does neither activate the control cell line” in data set [3] (25 μM, without fructose, FIG. 1 eighth bar); “does not activate the control cell line” in data set [3] (secondary screening, in the presence of fructose, FIG. 1 seventh bar).
